Laboratory results reported in US20170050957A1, “4-AMINO-6-(HETEROCYCLIC)PICOLINATES AND 6-AMINO-2-(HETEROCYCLIC)PYRIMIDINE-4-CARBOXYLATES AND THEIR USE AS HERBICIDES” (Dow AgroSciences LLC, priority 2013, published 2017).
Where two headings read alike, the source gives them in different places.

Experiments:
[1] = test system: Key Broadleaf Weed and Crop Species; assay: Post-emergent Test II herbicidal activity (Table 15); type: in vivo; conditions: post-emergence, 336 h, 14 d; for pest or weed control at 35 g/ha: 35 g ai/ha; for pest or weed control at 70 g/ha: 70 g ai/ha; for pest or weed control at 140 g/ha: 140 g ai/ha
Summary of the method: (§1)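 Plants grown in greenhouse (~15 h photoperiod, 23-29 °C day, 22-28 °C night) to first or second true leaf stage, then sprayed post-emergence at 187 L/ha with a high rate and 1/2×, 1/4×, 1/8× and 1/16× dilutions. Injury scored visually after 14 d, 0-100% versus untreated plants.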

[2] = test system: Key Grass and Sedge Weeds as well as Grass Crops; assay: Post-emergent Test II herbicidal activity (Table 16); type: in vivo; conditions: post-emergence, 336 h, 14 d; for pest or weed control at 35 g/ha: 35 g ai/ha; for pest or weed control at 70 g/ha: 70 g ai/ha; for pest or weed control at 140 g/ha: 140 g ai/ha
Summary of the method: as §1

[3] = Abutilon theophrasti, velvetleaf (Abutilon theophrasti), read-out: Visual Growth Reduction (%) 14 Days After Application, ABUTH
[4] = Amaranthus retroflexus, redroot pigweed (Amaranthus retroflexus), read-out: Visual Growth Reduction (%) 14 Days After Application, AMARE
[5] = Brassica napus, oilseed rape, canola (Brassica napus), read-out: Visual Growth Reduction (%) 14 Days After Application, BRSNN
[6] = Chenopodium album, lambsquarters (Chenopodium album), read-out: Visual Growth Reduction (%) 14 Days After Application, CHEAL
[7] = Euphorbia heterophylla, wild poinsettia (Euphorbia heterophylla), read-out: Visual Growth Reduction (%) 14 Days After Application, EPHHL
[8] = Helianthus annuus, sunflower (Helianthus annuus), read-out: Visual Growth Reduction (%) 14 Days After Application, HELAN
[9] = Cyperus esculentus, yellow nutsedge (Cyperus esculentus), read-out: Visual Growth Reduction (%) 14 Days After Application, CYPES
[10] = Echinochloa crus-galli, barnyardgrass (Echinochloa crus-galli), read-out: Visual Growth Reduction (%) 14 Days After Application, ECHCG
[11] = Oryza sativa, rice (Oryza sativa), read-out: Visual Growth Reduction (%) 14 Days After Application, ORYSA
[12] = Setaria faberi, giant foxtail (Setaria faberi), read-out: Visual Growth Reduction (%) 14 Days After Application, SETFA
[13] = Triticum aestivum, wheat, spring (Triticum aestivum), read-out: Visual Growth Reduction (%) 14 Days After Application, TRZAS
[14] = Zea mays, maize, corn (Zea mays), read-out: Visual Growth Reduction (%) 14 Days After Application, ZEAMX

SMILES	pest or weed control at 35 g/ha [1, 3] [%]	pest or weed control at 70 g/ha [1, 3] [%]	pest or weed control at 140 g/ha [1, 3] [%]	pest or weed control at 35 g/ha [1, 4] [%]	pest or weed control at 70 g/ha [1, 4] [%]	pest or weed control at 140 g/ha [1, 4] [%]	pest or weed control at 35 g/ha [1, 5] [%]	pest or weed control at 70 g/ha [1, 5] [%]	pest or weed control at 140 g/ha [1, 5] [%]	pest or weed control at 35 g/ha [1, 6] [%]	pest or weed control at 70 g/ha [1, 6] [%]	pest or weed control at 140 g/ha [1, 6] [%]	pest or weed control at 35 g/ha [1, 7] [%]	pest or weed control at 70 g/ha [1, 7] [%]	pest or weed control at 140 g/ha [1, 7] [%]	pest or weed control at 35 g/ha [1, 8] [%]	pest or weed control at 70 g/ha [1, 8] [%]	pest or weed control at 140 g/ha [1, 8] [%]	pest or weed control at 35 g/ha [2, 9] [%]	pest or weed control at 70 g/ha [2, 9] [%]	further results
COC(=O)c1nc(-c2ccc3sccc3c2)c(F)c(N)c1Cl [Compound 3.03]	95 to 100	95 to 100	95 to 100	95 to 100	95 to 100	95 to 100	0 to 29	60 to 74	60 to 74	95 to 100	95 to 100	95 to 100	95 to 100	95 to 100	95 to 100	95 to 100	95 to 100	95 to 100	45 to 59	45 to 59	pest or weed control at 140 g/ha [2, 9]: 45 to 59%; pest or weed control at 35 g/ha [2, 10]: 85 to 94%; pest or weed control at 70 g/ha [2, 10]: 95 to 100%; pest or weed control at 140 g/ha [2, 10]: 95 to 100%; pest or weed control at 35 g/ha [2, 11]: 0 to 29%; pest or weed control at 70 g/ha [2, 11]: 0 to 29%; pest or weed control at 140 g/ha [2, 11]: 0 to 29%; pest or weed control at 35 g/ha [2, 12]: 0 to 29%; pest or weed control at 70 g/ha [2, 12]: 85 to 94%; pest or weed control at 140 g/ha [2, 12]: 85 to 94%; pest or weed control at 35 g/ha [2, 13]: 0 to 29%; pest or weed control at 70 g/ha [2, 13]: 30 to 44%; pest or weed control at 140 g/ha [2, 13]: 45 to 59%; pest or weed control at 35 g/ha [2, 14]: 95 to 100%; pest or weed control at 70 g/ha [2, 14]: 95 to 100%; pest or weed control at 140 g/ha [2, 14]: 95 to 100%; melting point: 84 to 85 °C
COC(=O)c1nc(-c2ccc3sccc3c2)c(C)c(N)c1Cl [Compound 3.06]	45 to 59	60 to 74	85 to 94	85 to 94	85 to 94	95 to 100	30 to 44	30 to 44	45 to 59	30 to 44	60 to 74	60 to 74	0 to 29	0 to 29	30 to 44	95 to 100	95 to 100	95 to 100	0 to 29	0 to 29	pest or weed control at 140 g/ha [2, 9]: 0 to 29%; pest or weed control at 35 g/ha [2, 10]: 0 to 29%; pest or weed control at 70 g/ha [2, 10]: 0 to 29%; pest or weed control at 140 g/ha [2, 10]: 0 to 29%; pest or weed control at 35 g/ha [2, 11]: 0 to 29%; pest or weed control at 70 g/ha [2, 11]: 0 to 29%; pest or weed control at 140 g/ha [2, 11]: 0 to 29%; pest or weed control at 35 g/ha [2, 12]: 0 to 29%; pest or weed control at 70 g/ha [2, 12]: 0 to 29%; pest or weed control at 140 g/ha [2, 12]: 0 to 29%; pest or weed control at 35 g/ha [2, 13]: 0 to 29%; pest or weed control at 70 g/ha [2, 13]: 0 to 29%; pest or weed control at 140 g/ha [2, 13]: 0 to 29%; pest or weed control at 35 g/ha [2, 14]: 0 to 29%; pest or weed control at 70 g/ha [2, 14]: 0 to 29%; pest or weed control at 140 g/ha [2, 14]: 0 to 29%; melting point: 155 to 159 °C
